Source: US20090130707A1, “Methods of reducing the inhibitory effect of a redox active metal ion on the enzymatic hydrolysis of cellulosic material” (priority 2007, published 2009)
Read-outs that look alike come from different tables or passages of the source.

Legend:
[1] = molecular target: Cellulolytic Enzyme Composition #1; assay: mini-plate-scale AVICEL hydrolysis by Cellulolytic Enzyme Composition #1; assay type: biochemical, Trichoderma reesei; settings: for IC50: AVICEL hydrolysis, 0.2 to 2 mM inhibitor; for Effect on enzymatic cellulolysis: loss in initial rate / Effect on enzymatic cellulolysis: loss in extended hydrolysis extent / Effect on hydrolysis (in words) / Effect on enzymatic cellulolysis: gain in initial rate / Effect on enzymatic cellulolysis: gain in extended hydrolysis extent: 10 mM; for Effect on enzymatic cellulolysis: loss in initial rate / Effect on enzymatic cellulolysis: loss in extended hydrolysis extent / Effect on enzymatic cellulolysis: gain in initial rate / Effect on enzymatic cellulolysis: gain in extended hydrolysis extent: 25 g AVICEL and 0.25 g enzyme per liter, pH 5, 50° C.; for Effect on enzymatic cellulolysis: loss in extended hydrolysis extent / Effect on enzymatic cellulolysis: gain in extended hydrolysis extent: after 4 days
Description: Various (biologically common) divalent metal cations with variable ionic radii were tested in 2.8 ml Deep Well Microplates (VWR International, West Chester, Pa., USA) (“mini-plate-scale”) containing 1 ml suspensions of 25 g of AVICEL® per liter in 50 mM sodium acetate pH 5 at 50° C. Cellulolytic Enzyme Composition #1 was added at 0.25 g per liter for each hydrolysis. The mini-plates were sealed at 160° C. for 2 seconds using an ABGENE® ALPS 300™ sealer (ABgene, Rochester, N.Y., USA). The sealed mini-plates were incubated at 50° C. in an INNOVA® 4080 incubator shaker at 150 rpm. Soluble reducing sugars were measured by HPLC as described in Example 30.
Iron-chelator complexes of variable size or redox property were tested for their ability to inhibit enzymatic hydrolysis of cellulose. […]

[2] = cited from earlier work; for Radius: ionic radii in crystals, 6-ligand coordination
[3] = read-out: I50 estimated based on limited data
[4] = single-electron oxidation potential of iron-chelator complexes
[5] = single-electron redox potential vs NHE

Row | Compound | IC50 [1, 3] [mM] | Effect on enzymatic cellulolysis: loss in initial rate [1] | Effect on enzymatic cellulolysis: loss in extended hydrolysis extent [1] | E° [2, 4] | IC50 ([1]; read-out: I50) [mM] | Radius [2] [Å] | E° [2, 5] [V] | Effect on hydrolysis (in words) [1] | Effect on enzymatic cellulolysis: gain in initial rate [1] | Effect on enzymatic cellulolysis: gain in extended hydrolysis extent [1] | E° ([2]; 2-electron E° (in parenthesis)) | Effect on hydrolysis over concentration range ([1]; 0.1 to 10 mM)
1 | quinone [reference compound] | ~5 | – | – | – | – | – | – | – | – | – | – | –
2 | O=C([O-])CN(CCN(CC(=O)[O-])CC(=O)[O-])CC(=O)[O-].[Fe+3].[Na+] [Fe(III)NaEDTA, FeNa(EDTA)] | ~10 | ~10% | ~20% | 0.13^2 V | – | – | – | – | – | – | – | –
3 | O=S(=O)([O-])[O-].[Cu+2] [Cu(II), CuSO4] | – | ~90% | ~80% | – | 0.2 | 0.73 | 0.153 | – | – | – | – | –
4 | [Cl-].[Cl-].[Mg+2] [Mg(II), MgCl2] | – | – | – | – | – | 0.72 | −0.33 | slight enhancement | ~20% gain in initial rate, ~20% gain in extended hydrolysis extent | ~20% gain in initial rate, ~20% gain in extended hydrolysis extent | – | –
5 | [Cl][Ni][Cl] [Ni(II), NiCl2] | – | ~20% | ~10% | – | – | 0.69 | −1.56 | slight or moderate inhibition | – | – | – | –
6 | O=C([O-])CN(CCN(CC(=O)[O-])CC(=O)[O-])CC(=O)[O-].[Fe+2].[Na+].[Na+] [Fe(II)Na2EDTA, FeNa2EDTA] | < 10 | ~80% loss in initial rate, ~80% loss in extended hydrolysis extent | ~80% loss in initial rate, ~80% loss in extended hydrolysis extent | (=Fe(III)NaEDTA's) | – | – | – | – | – | – | – | –
7 | [Ca+2].[Cl-].[Cl-] [Ca(II), CaCl2] | – | – | – | – | – | 1.00 | −0.96 | slight enhancement | ~20% gain in initial rate, ~20% gain in extended hydrolysis extent | ~20% gain in initial rate, ~20% gain in extended hydrolysis extent | – | –
8 | Fe(2,2′-bipyridyl)3Cl3 [Fe(III)(2,2′BP)2Cl3] | – | ~100% loss in initial rate, ~100% loss in extended hydrolysis extent | ~100% loss in initial rate, ~100% loss in extended hydrolysis extent | 0.78 V | 0.6 ± 0.1 | – | – | – | – | – | – | –
9 | O=S(=O)([O-])[O-].[Co+2] [Co(II), CoSO4] | – | ~10% | no change | – | – | 0.65 | – | slight or moderate inhibition | – | – | (−0.28) V | –
10 | O=S(=O)([O-])[O-].[Mn+2] [Mn(II), MnSO4] | – | ~10% | no change | – | – | 0.67 | – | slight or moderate inhibition | – | – | (−1.185) V | no effect
11 | O=S(=O)([O-])[O-].[Zn+2] [Zn(II), ZnSO4] | – | ~20% loss in initial rate, ~20% loss in extended hydrolysis extent | ~20% loss in initial rate, ~20% loss in extended hydrolysis extent | – | – | 0.74 | −2.3 | slight or moderate inhibition | – | – | – | –
12 | [Cl][Cr]([Cl])[Cl] [Cr(III), CrCl3] | > 10 | ~40% loss in initial rate, ~40% loss in extended hydrolysis extent | ~40% loss in initial rate, ~40% loss in extended hydrolysis extent | – | – | 0.62 | −0.407 | moderate | – | – | – | –
13 | [Cl][Ru]([Cl])[Cl] [Ru(III), RuCl3] | – | ~90% | ~80% | – | 0.15 | 0.68 | 0.249 | pronounced | – | – | – | –
14 | Fe(2,2′-bipyridyl)3Cl2 [Fe(II)(2,2′BP)2Cl2] | – | ~40% loss in initial rate, ~40% loss in extended hydrolysis extent | ~40% loss in initial rate, ~40% loss in extended hydrolysis extent | – | 20 | – | – | – | – | – | – | –
